Test results published in US7115658B2 (priority 2002, dated 2006).

Each compound was assayed against T1, Recombinant HCV polymerase (Hepatitis C virus genotype 1b, UniProt P26663) (assay: HCV Polymerase Inhibition Assay). Details: primer/template-directed transcription, 30 minutes at 30° C.; category symbol.
T1 construct: 2.5 pmoles (0.15 μg) HCV polymerase protein
T1 sequence (P26663 2420-3010): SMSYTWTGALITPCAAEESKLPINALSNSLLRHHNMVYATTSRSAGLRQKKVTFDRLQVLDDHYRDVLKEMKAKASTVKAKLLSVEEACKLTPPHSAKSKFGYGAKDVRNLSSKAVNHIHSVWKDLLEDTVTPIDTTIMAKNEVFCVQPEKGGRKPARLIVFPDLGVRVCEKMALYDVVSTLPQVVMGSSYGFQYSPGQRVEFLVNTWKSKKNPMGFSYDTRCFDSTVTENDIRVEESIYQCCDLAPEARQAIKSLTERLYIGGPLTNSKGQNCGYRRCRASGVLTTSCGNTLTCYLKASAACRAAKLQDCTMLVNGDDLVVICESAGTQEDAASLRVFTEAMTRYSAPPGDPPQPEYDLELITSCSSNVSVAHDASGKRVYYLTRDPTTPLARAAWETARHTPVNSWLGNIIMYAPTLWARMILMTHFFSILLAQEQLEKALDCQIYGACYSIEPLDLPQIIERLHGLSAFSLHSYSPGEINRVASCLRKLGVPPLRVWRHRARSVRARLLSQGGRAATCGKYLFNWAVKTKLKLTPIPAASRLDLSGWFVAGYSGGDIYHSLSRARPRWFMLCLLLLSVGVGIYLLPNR
Format: biochemical
Method: The above-described compounds were tested for activity with HCV polymerase. Recombinant HCV polymerase was tested for its ability to perform primer/template-directed transcription in assays that contained 30 mM tris-HCl pH 7.2, 10 mM MgCl2, 20 mM NaCl, 1 mM Dithiothreitol (DTT), 0.05% Tween-20, 1% glycerol, 5 pmoles biotin-dG12 (primer), 0.5 pmoles poly(rC)300 (template), 1 μM GTP, 0.1–0.3 uCi α-^32P-GTP, and 2.5 pmoles (0.15 μg) HCV polymerase protein in a final volume of 75 μL. Reactions were initiated by addition of enzyme and incubated 30 minutes at 30° C. Reactions were stopped by addition of 33 mM EDTA, and polynucleotide products were collected by filtration through Diethylaminoethyl (DE) Filtermat papers (Wallac). Unincorporated triphosphate was removed by washing the filters with 5% dibasic sodium phosphate. The filters were counted in a Packard Tri-Lux Microbeta scintillation counter (Packard Bioscience, Meriden, Conn.). Compounds to be tested were added at various concentrations, e.g., 1 μm to 50 μm, from stocks in 10% DMSO-water (final DMSO is 1% in reaction).
IC50 values were estimated from the primary cpm data (collected in triplicate) using the formula: cpm (I)=cpm (no inhibitor)(1−([I]/([I]+IC50))). An IC50 value represents the concentration (in μM) of a compound that provides 50% inhibition of polymerase-directed transcription in the above assay. A percent inhibition value is expressed for a compound where it was impractical to calculate an IC50 value with available data. If the IC50 estimated by the above equation was less than 200 nM, it was recalculated using the following equation, which takes into account the enzyme concentration (30 nM) in the assay: cpm(I)=cpm(no inhibitor)(1−((((I+IC50+30e−9)−sqrt(((I+IC50+30e−9)^2)−4×30e−9×I)))/((2) (30e−9))). Curve fitting was performed using the program KaleidaGraph (Synergy Software, Reading, Pa.).
For `O=C1C=C(O)CC(CCc2cc3ccccc3o2)(C2CCCC2)O1` (stereo not shown) [Example 46, 6-[2-(1-benzofuran-2-yl)ethyl]-6-cyclopentyl-4-hydroxy-5,6-dihydro-2H-pyran-2-one], the IC50 was 10 to 50 µM. Work on `COc1ccc(CCC2(C3CCCC3)CC(=O)CC(=O)O2)cc1Cl` (stereo not shown) [Example 27, 6-[2-(3-Chloro-4-methoxy-phenyl)-ethyl]-6-cyclopentyl-dihydro-pyran-2,4-dione] yielded an IC50 of 1 to 10 µM. In the case of `COc1ccc(CCC2(C3CCCC3)CC(=O)CC(=O)O2)c(OC)c1` (stereo not shown) [Example 38, 6-Cyclopentyl-6-[2-(2,4-dimethoxy-phenyl)-ethyl]-dihydro-pyran-2,4-dione], the IC50 is reported as 10 to 50 µM. With `CCCOc1ccc(CCC2(C3CCCC3)CC(=O)CC(=O)O2)cc1F` (stereo not shown) [Example 72, 6-Cyclopentyl-6-[2-(3-fluoro-4-propoxy-phenyl)-ethyl]-dihydro-pyran-2,4-dione] the IC50 was 1 to 10 µM. Compound `CS(=O)(=O)c1ccc(CCC2(C3CCCC3)CC(=O)CC(=O)O2)cc1` (stereo not shown) [Example 28, 6-Cyclopentyl-6-[2-(4-methanesulfonyl-phenyl)-ethyl]-dihydro-pyran-2,4-dione] has an IC50 of 1 to 10 µM. Work on `O=C1CC(=O)OC(CCc2cccc3ccccc23)(C2CCCC2)C1` (stereo not shown) [Example 2, 6-Cyclopentyl-6-(2-napthalen-1-ylethyl)dihydropyran-2,4-dione] yielded an IC50 greater than 50 µM. With `Cc1ccc(S(=O)(=O)Oc2cc(C(C)(C)C)c(SC3=C(O)CC(CCc4ccc(O)cc4)(C4CCCCC4)OC3=O)cc2C)cc1` (stereo not shown) [Example 137, Toluene-4-sulfonic acid 5-tert-butyl-4-(6-Cyclohexyl-4-hydroxy-6-[2-(4-hydroxy-phenyl)-ethyl]-2-oxo-5,6-dihydro-2H-pyran-3-ylsulfanyl)-2-methyl-phenyl ester] the IC50 was 10 to 50 µM. Compound `CC(=O)C1C(=O)CC(CCc2cccc(Cl)c2)(C2CCCC2)OC1=O` (stereo not shown) [Example 167, 3-Acetyl-6-[2-(3-chloro-phenyl)-ethyl]-6-cyclopentyl-dihydro-pyran-2,4-dione] has an IC50 of 10 to 50 µM. Compound `COc1ccc(CCC2(C3CCCC3)CC(=O)C(Oc3ccc(Cl)cc3)C(=O)O2)c(OC)c1` (stereo not shown) [Example 164, 3-(4-Chloro-phenoxy)-6-cyclopentyl-6-[2-(2,4-dimethoxy-phenyl)-ethyl]-dihydro-pyran-2,4-dione] has an IC50 of 10 to 50 µM. In the case of `COc1ccc(CCC2(C3CCCC3)CC(O)=C(Sc3ccc(O)cc3)C(=O)O2)cc1Cl` (stereo not shown) [Example 126, 6-[2-(3-Chloro-4-methoxy-phenyl)-ethyl]-6-cyclopentyl-4-hydroxy-3-(4-hydroxy-phenylsulfanyl)-5,6-dihydro-pyran-2-one], the IC50 is reported as less than 1 µM. For `O=C1OC(CCc2ccc(O)cc2)(C2CCCC2)CC(O)=C1SCc1ccccc1` (stereo not shown) [Example 84, 3-Benzylsulfanyl-6-cyclopentyl-4-hydroxy-6-[2-(4-hydroxyphenyl)ethyl]-5,6-dihydropyran-2-one], the IC50 was 1 to 10 µM. `Cc1cc(SC2=C(O)CC(CCc3ccc(O)cc3)(C3CCCC3)OC2=O)c(C(C)(C)C)cc1C(N)=O` (stereo not shown) [Example 146, 5-tert-butyl-4-{6-Cyclopentyl-4-hydroxy-6-[2-(4-hydroxy-phenyl)-ethyl]-2-oxo-5,6-dihydro-2H-pyran-3-ylsulfanyl}-2-methyl-benzamide] showed an IC50 of 1 to 10 µM. Work on `O=C1CC(=O)OC(CCc2cccc(Cl)c2)(C2CCCC2)C1` (stereo not shown) [Example 26, 6-[2-(3-Chloro-phenyl)-ethyl]-6-cyclopentyl-dihydro-pyran-2,4-dione] yielded an IC50 of 1 to 10 µM. `COc1cc(CCC2(C3CCCC3)CC(O)=CC(=O)O2)ccc1O` (stereo not shown) [Example 19, 6-Cyclopentyl-4-hydroxy-6-[2-(4-hydroxy-3-methoxy-phenyl)-ethyl]-5,6-dihydro-pyran-2-one] was tested, and the IC50 was 1 to 10 µM. “5-Trifluoromethyl-pyridine-2-sulfonic acid[5-tert-butyl-4-(6,6-dicyclopentyl-4-hydroxy-2-oxo-5,6-dihydro-2H-pyran-3-ylsulfanyl)-2-methyl-phenyl]-amide [Example 185]” showed an IC50 of 10 to 50 µM. For `COc1ccc(CCC2(C3CCCC3)CC(O)=C(Sc3nc4ccccc4o3)C(=O)O2)cc1Cl` (stereo not shown) [Example 127, 3-(Benzooxazol-2-ylsulfanyl)-6-[2-(3-chloro-4-methoxy-phenyl)-ethyl]-6-cyclopentyl-4-hydroxy-5,6-dihydro-pyran-2-one], the IC50 was less than 1 µM. With `CC(C)CCC1(C2CCCC2)CC(O)=CC(=O)O1` (stereo not shown) [Example 151, 6-Cyclopentyl-4-hydroxy-6-(3-methyl-butyl)-5,6-dihydro-pyran-2-one] the IC50 was greater than 50 µM. Work on `COc1ccccc1CCC1(C2CCCC2)CC(=O)CC(=O)O1` (stereo not shown) [Example 4, 6-Cyclopentyl-6-[2-(2-methoxyphenyl)ethyl]dihydropyran-2,4-dione] yielded an IC50 of 10 to 50 µM. Work on `COc1cc(OC)c(CCC2(C3CCCC3)CC(O)=C(Sc3nnc(-c4cccs4)n3C)C(=O)O2)cc1Cl` (stereo not shown) [Example 96, 6-[2-(5-chloro-2,4-dimethoxyphenyl)ethyl]-6-cyclopentyl-4-hydroxy-3-[(4-methyl-5-thien-2-yl 4H-1,2,4-triazol-3-yl)thio]-5,6-dihydro-2-one] yielded an IC50 of less than 1 µM. `O=C1OC(CCc2ccc(OCc3ccccc3)cc2)(C2CCCC2)CC(O)=C1Sc1nc(O)c2cc[nH]c2n1` (stereo not shown) [Example 123, 6-{2-[4-(Benzyloxy)phenyl]ethyl}-6-cyclopentyl-4-hydroxy-3-[(4-hydroxy-7H-pyrrolo[2,3-d]pyrimidin-2-yl)thio]-5,6-dihydro-2H-pyran-2-one] was tested, and the IC50 was less than 1 µM. For `CC(C)Oc1cccc(CCC2(C3CCCC3)CC(=O)CC(=O)O2)c1` (stereo not shown) [Example 33, 6-Cyclopentyl-6-[2-(3-isopropoxy-phenyl)-ethyl]-dihydro-pyran-2,4-dione], the IC50 was 1 to 10 µM. In the case of `O=C1CC(=O)OC(CCc2ccc(N3CCCC3=O)c(F)c2)(C2CCCC2)C1` (stereo not shown) [Example 80, 6-Cyclopentyl-6-{2-[3-fluoro-4-(2-oxo-pyrrolidin-1-yl)-phenyl]-ethyl}-dihydro-pyran-2,4-dione], the IC50 is reported as 1 to 10 µM. Work on `CC(=O)c1cccc(CCC2(C3CCCC3)CC(=O)CC(=O)O2)c1` (stereo not shown) [Example 64, 6-[2-(3-Acetyl-phenyl)-ethyl]-6-cyclopentyl-dihydro-pyran-2,4-dione] yielded an IC50 of 1 to 10 µM. “6-[2-(3-Chloro-4-isopropoxy-phenyl)-ethyl]-6-cyclopentyl-4-hydroxy-3-(4-methoxy-phenylsulfanyl)-5,6-dihydro-pyran-2-one [Example 131]” was tested, and the IC50 was less than 1 µM. `O=C1CC(=O)OC(CCc2ccc(F)c(F)c2)(C2CCCC2)C1` (stereo not shown) [Example 54, 6-Cyclopentyl-6-[2-(3,4-difluoro-phenyl)-ethyl]-dihydro-pyran-2,4-dione] was tested, and the IC50 was 10 to 50 µM. In the case of `CC1(c2ccc(CCC3(C4CCCC4)CC(=O)CC(=O)O3)cc2F)OCCO1` (stereo not shown) [Example 60, 6-Cyclopentyl-6-{2-[3-fluoro-4-(2-methyl-[1,3]dioxolan-2-yl)-phenyl]-ethyl}-dihydro-pyran-2,4-dione], the IC50 is reported as 1 to 10 µM. For `O=C1O[C@](CCc2cccc(O)c2)(C2CCCC2)CC(O)=C1N(c1ccccc1)c1ccccc1` [Example 156, (S)-6-Cyclopentyl-3-diphenylamino-4-hydroxy-6-[2-(3-hydroxy-phenyl)-ethyl]-5,6-dihydro-pyran-2-one], the IC50 was 10 to 50 µM. With `CCSc1ccc(CCC2(C3CCCC3)CC(=O)CC(=O)O2)cc1` (stereo not shown) [Example 75, 6-Cyclopentyl-6-[2-(4-ethylsulfanyl-phenyl)-ethyl]-dihydro-pyran-2,4-dione] the IC50 was 1 to 10 µM. Compound `O=C1CC(=O)OC(CCc2ccccc2CO)(C2CCCC2)C1` (stereo not shown) [Example 6, 6-Cyclopentyl-6-[2-(2-hydroxymethylphenyl)ethyl]dihydropyran-2,4-dione] has an IC50 of 10 to 50 µM. In the case of `O=C1C=C(O)CC(CCCc2ccccc2)(C2CCCC2)O1` (stereo not shown) [Example 21, 6-Cyclopentyl-4-hydroxy-6-(3-phenyl-propyl)-5,6-dihydro-pyran-2 one], the IC50 is reported as greater than 50 µM. With `O=C1CC(CCc2ccccc2)(C2CCCC2)OC(=O)C1Cc1ccccc1` (stereo not shown) [Example 88, 3-benzyl-6-cyclopentyl-6-(2-phenylethyl)dihydro-2H-pyran-2,4(3H)-dione] the IC50 was 10 to 50 µM. `Cc1cc(SC2=C(O)CC(CCc3ccc(O)cc3)(C3CCCC3)OC2=O)c(C(C)(C)C)cc1N` (stereo not shown) [Example 136, 3-(4-Amino-2-tert-butyl-5-methyl-phenylsulfanyl)-6-cyclopentyl-4-hydroxy-6-[2-(4-hydroxy-phenyl)-ethyl]-5,6-dihydro-pyran-2-one] gave an IC50 of less than 1 µM. In the case of `COc1cc(OC)c(CCC2(C3CCCC3)CC(O)=C(Sc3nnnn3CCN(C)C)C(=O)O2)cc1Cl` (stereo not shown) [Example 107, 6-[2-(5-Chloro-2,4-dimethoxyphenyl)ethyl]-6-cyclopentyl-3-({1-[2-(dimethylamino)ethyl]-1H-tetraazol-5-yl}thio)-4-hydroxy-5,6-dihydro-2H-pyran-2-one], the IC50 is reported as less than 1 µM.

Same assay, conditions: primer/template-directed transcription, 30 minutes at 30° C.; read-out: IC50(μM) Category
`COc1ccc(CCC2(C3CCCC3)CC(=O)C(Cc3ccccc3)C(=O)O2)cc1Cl` (stereo not shown) [Example 178, 3-Benzyl-6-[2-(3-chloro-4-methoxy-phenyl)-ethyl]-6-cyclopentyl-dihydro-pyran-2,4-dione] showed an IC50 of 0.6 µM.
